Assay results from patent US7829524B2, “Antimicrobial peptides” (Novozymes Adenium Biotech A/S, priority 2003, dated 2010).
Where two headings read alike, the source gives them in different places. Where no end group is shown, it is not given here.

Legend:
[1] = system: Eschericia coil (ATCC10536); assay type: cell-based, Escherichia coli; settings: ATCC10536
Procedure: (§1) According to the NCCLS guidelines for susceptibility test of novel antimicrobial compounds, we found a broad spectrum of activity of Cat1 (Methods for Dilution Antimicrobial Susceptibility Tests for Bacteria That Grow Aerobically; Approved Standard-Fifth Edition. NCCLS document M7-A5 (ISBN1-56238-394-9)).
(§2) The antimicrobial activity of the polypeptides of the invention was analyzed using the Microdilution Broth Assay (see Example 1) with Mueller Hinton Broth (MHB) media. Four different bacterial strains were tested in this setup; Micrococcus luteus (ATCC 9341), Pseudomonas aeruginosa (ATCC 27853), Escherichia coli (ATCC 10536) and Klebsiella pneumoniae (DSM681). The amino acid sequence of the polypeptides and the Minimal Inhibitory concentrations (MIC, microgram/ml) obtained is presented in Table 7 below.

[2] = system: Pseudomonas aeroginosa (ATCC27853); assay type: cell-based, Pseudomonas aeruginosa; settings: ATCC27853
Procedure: as §1
(§3) In another campaign, the specific MICs of Cat1 were determined against a variety of microbial strains relevant for wound infections. As recommended in the above-mentioned NCCLS protocol, the strains were grown in cationic adjusted Muller-Hinton Broth. The highest concentration tested was 32 μg/ml.
Minimal inhibitory concentrations of Cat1 were also determined using cation-adjusted Mueller hinton broth (MHB) in the microbroth dilution assay, wherein MHB was used with different modifications as depicted in Table 2 below. The selected test organism was Pseudomonas aeroginosa (ATCC 27853). […]

E. coli TOP10 = assay type: cell-based
Procedure: A range of synthetic antimicrobial polypeptides were expressed in E. coli TOP10 (Invitrogen) using arabinose as inducer, as disclosed in Example 1 of International patent application WO 00/73433 (with minor modifications). […] Briefly, fresh overnight cultures grown in RM medium containing 0.2% glucose and ampicillin (100 μg/ml) were diluted 300-fold into 150 microliter of RM containing 0.2% glycerol and ampicillin (100 μg/ml) and different concentrations of arabinose (0, 0.01% or 0.1%) in a microtiter plate and incubated at 37 degrees Celsius with vigorous shaking. The growth curve was monitored by measuring OD450 using a Bioscreen C Microbiology reader (Thermo Electron Corporation) at intervals of 30 minutes for 14 hours (see Invitrogen protocol of the pBAD/gill A, B and C vectors catalogue nos. V450-01 for buffer and media composition). The percentage of growth inhibition was calculated as the end point OD measurement of each sample divided by the end point OD measurement obtained from cells containing the control vector and multiplied by 100. The formula is the following: [formula] where “blank OD” corresponds to the OD of an empty well.

[3] = system: Micrococcus luteus (ATCC9341); assay type: cell-based; settings: ATCC9341
Procedure: as §1, §3, §2

[4] = system: Klebsiella pneumoniae (DSM681); assay type: cell-based
Procedure: as §1, §2

Escherichia coli Top10 = experiment: Radial Diffusion Assay using minimal conditions (MEC); assay type: cell-based; settings: Table 8
Procedure: (§4) A modified version of a previously published protocol has been applied in the detection of antimicrobial activity (Lehrer et al., (1991) Ultra sensitive assays for endogenous antimicrobial polypeptides J Immunol Methods 137: 167-173). Target bacteria (10^6 colony forming units (CFU)) were added to 10 ml of underlay agarose (1% low electro-endosmosis agarose, 0.03% Trypticase soy broth, 10 mM sodium phosphate, pH 7.4, 37 degrees Celsius). Suspension was solidified on an INTEGRID Petri Dish (Becton Dickinson Labware). A 3 mm Gel Puncher was used to make holes in the underlay agarose (Amersham Pharmacia Biotech, Sweden). Samples were added to the holes and incubated at 37 degrees Celsius, 3 hours. An overlay was poured on top and the plate was incubated overnight (LB media, 7.5% Agar). Antimicrobial activity was seen as bacterial clearing zones around the wells. Living cells was counterstained by adding 10 ml, 0.2 mM MTT (3-(4,5-Dimethylthiazol-2-yl)-2,5-diphenyltetrazolium bromide Thiazolyl blue).
(§5) The antimicrobial activity of the polypeptides of the invention was also analyzed in a Radial Diffusion Assay (see Example 1) using minimal conditions. Two bacterial strains were tested in this setup; Staphylococcus camosus and Escherichia coli Top10. The amino acid sequence of the polypeptides and the Minimal Effective Concentration (MEC, microgram/ml) obtained is presented in table 8 below.

Staphylococcus camosus = experiment: as above; assay type: cell-based; settings: Table 8
Procedure: as §4, §5

[5] = Table 5, 0.1% arabinose, end point OD450, 14 hours
[6] = Table 6, 0.01% arabinose, end point OD450, 14 hours
[7] = Table 6, 0.1% arabinose, end point OD450, 14 hours
[8] = Table 4, 0.01% arabinose, end point OD450, 14 hours
[9] = Table 4, 0.1% arabinose, end point OD450, 14 hours

GLLRRFRKKIGKKLKKIAR [SEQ ID NO: 62, GLLRRFRKKIGKKLKKIAR]
MIC [1]: 16 µg/mL
MIC [2]: 64 µg/mL
Growth inhibition using 0.01% arabinose (%) (E. coli TOP10; TOP10, 14 h): 94%
Growth inhibition using 0.1% arabinose (%) (E. coli TOP10; TOP10, 14 h): 98%
MIC [3]: 64 µg/mL
MIC [4]: 32 to 64 µg/mL
MEC (Escherichia coli Top10): 28.0 µg/mL
MEC (Staphylococcus camosus): 1.1 µg/mL

GLLRRFWKKIGKKLKKFGQKIKPLPKLVP [SEQ ID NO: 41]
MIC [1]: 32 µg/mL
MIC [2]: 16 µg/mL
Growth inhibition using 0.1% arabinose (%) (E. coli TOP10; TOP10, 14 h): 96%
MIC [3]: 32 µg/mL
MIC [4]: 32 µg/mL
MEC (Escherichia coli Top10): 16.6 µg/mL
MEC (Staphylococcus camosus): 3.8 µg/mL

GLLRRLRKKIGKKLKKIAR [SEQ ID NO: 59, GLLRRLRKKIGKKLKKIAR]
MIC [1]: 16 µg/mL
MIC [2]: 8 µg/mL
Growth inhibition using 0.01% arabinose (%) (E. coli TOP10; TOP10, 14 h): 93%
Growth inhibition using 0.1% arabinose (%) (E. coli TOP10; TOP10, 14 h): 100%
MIC [3]: 32 µg/mL
MIC [4]: 32 µg/mL
MEC (Escherichia coli Top10): 18.3 µg/mL
MEC (Staphylococcus camosus): 1.8 µg/mL

GLLRRLWRKIGRKLKKYGQKIKALRKLVP [SEQ ID NO: 13]
MIC [1]: 64 µg/mL
MIC [2]: 32 µg/mL
Growth inhibition using 0.01% arabinose (%) (E. coli TOP10; TOP10, 14 h): 96%
Growth inhibition using 0.1% arabinose (%) (E. coli TOP10; TOP10, 14 h): 100%
MIC [3]: 32 µg/mL
MIC [4]: 32 µg/mL
MEC (Escherichia coli Top10): 27.0 µg/mL
MEC (Staphylococcus camosus): 4.4 µg/mL

GLLRRFRRKIGRKLKKYGLMIKPLRKLVP (Synthetic antimicrobial peptide) [SEQ ID NO: 21]
Growth inhibition using 0.1% arabinose (%) (E. coli TOP10; [5]): 94%

GLLRRLRRKIGKKFKKIGQVIKHLRKLVP (Synthetic antimicrobial peptide) [SEQ ID NO: 32]
Growth inhibition using 0.1% arabinose (%) (E. coli TOP10; [5]): 97%

GLFRRLKRKIGRKFKKIAR (Synthetic antimicrobial peptide) [SEQ ID NO: 60]
Growth inhibition using 0.01% arabinose (%) (E. coli TOP10; [6]): 85%
Growth inhibition using 0.1% arabinose (%) (E. coli TOP10; [7]): 99%

GRIKRVGEKIGKKLKKIGQVIKHLRILVP (Synthetic antimicrobial peptide) [SEQ ID NO: 38]
Growth inhibition using 0.1% arabinose (%) (E. coli TOP10; [5]): 96%
MEC (Escherichia coli Top10): 8.5 µg/mL
MEC (Staphylococcus camosus): 8 µg/mL

GLLKRLGRKIGKKLKKIAR [SEQ ID NO: 66, GLLKRLGRKIGKKLKKIAR]
MIC [1]: 8 µg/mL
MIC [2]: 64 µg/mL
Growth inhibition using 0.01% arabinose (%) (E. coli TOP10; TOP10, 14 h): 92%
Growth inhibition using 0.1% arabinose (%) (E. coli TOP10; TOP10, 14 h): 100%
MIC [3]: 64 µg/mL
MEC (Escherichia coli Top10): 13.5 µg/mL
MEC (Staphylococcus camosus): 2 µg/mL

GLLKRFRGKIGKKLKKYGQLIKAIRILVP (Synthetic antimicrobial peptide) [SEQ ID NO: 22]
Growth inhibition using 0.1% arabinose (%) (E. coli TOP10; [5]): 90%

GLLRRFRBEIGKKLKKYGQKIKHLRKLVP (GLLRRFREKIGKKLKKYGQKIKHLRKLVP; Synthetic antimicrobial peptide) [SEQ ID NO: 45]
Growth inhibition using 0.1% arabinose (%) (E. coli TOP10; [5]): 79%

GLLRRFRKKIGKKLKKITR (Synthetic antimicrobial peptide) [SEQ ID NO: 67]
Growth inhibition using 0.01% arabinose (%) (E. coli TOP10; [6]): 90%
Growth inhibition using 0.1% arabinose (%) (E. coli TOP10; [7]): 100%

GRFKRLRKKIGKKFKKIGQKIKDIRKLIVP (GRFKRLRKKIGKKFKKIGQKIKDIRKLVP; Synthetic antimicrobial peptide) [SEQ ID NO: 51]
Growth inhibition using 0.1% arabinose (%) (E. coli TOP10; [5]): 97%

GLLRRLRKKIGKKLKKIGQKIKPIRKLVP (Synthetic antimicrobial peptide) [SEQ ID NO: 56]
Growth inhibition using 0.1% arabinose (%) (E. coli TOP10; [5]): 94%

GLFRRLKRKIGKKLKKIAR (Synthetic antimicrobial peptide) [SEQ ID NO: 65]
Growth inhibition using 0.01% arabinose (%) (E. coli TOP10; [6]): 91%
Growth inhibition using 0.1% arabinose (%) (E. coli TOP10; [7]): 99%

GLLRRFRKKIGKKLKKYGQKIKHLRILVP (Synthetic antimicrobial peptide) [SEQ ID NO: 57]
Growth inhibition using 0.1% arabinose (%) (E. coli TOP10; [5]): 95%

GRLRRLGKIUGEKLKKFGQMIKHIRILVP (GRLRRLGKKIGEKLKKFGQMIKHIRILVP; Synthetic antimicrobial peptide) [SEQ ID NO: 53]
Growth inhibition using 0.1% arabinose (%) (E. coli TOP10; [5]): 84%

GRLRRLRRKIGEKLKKFGQVIKALRILVP (Synthetic antimicrobial peptide) [SEQ ID NO: 12]
Growth inhibition using 0.01% arabinose (%) (E. coli TOP10; [8]): 94%
Growth inhibition using 0.1% arabinose (%) (E. coli TOP10; [9]): 99%

GLLRRLRGKIGKKLKKIGQKIKAIRKLVP (Synthetic antimicrobial peptide) [SEQ ID NO: 4]
Growth inhibition using 0.01% arabinose (%) (E. coli TOP10; [8]): 89%
Growth inhibition using 0.1% arabinose (%) (E. coli TOP10; [9]): 100%

GLLRRFWMKIGGKLKKFGQMIKHLRKLVP (Synthetic antimicrobial peptide) [SEQ ID NO: 11]
Growth inhibition using 0.01% arabinose (%) (E. coli TOP10; [8]): 92%
Growth inhibition using 0.1% arabinose (%) (E. coli TOP10; [9]): 99%

GLLKRLGRKIGKKFKKIAR (Synthetic antimicrobial peptide) [SEQ ID NO: 61]
Growth inhibition using 0.01% arabinose (%) (E. coli TOP10; [6]): 89%
Growth inhibition using 0.1% arabinose (%) (E. coli TOP10; [7]): 98%

GLFRRLGKKIGKKIKKFGQVIKHIRILVP (GLFRRLGKKIGKKLKKFGQVIKHIRILVP; Synthetic antimicrobial peptide) [SEQ ID NO: 34]
Growth inhibition using 0.1% arabinose (%) (E. coli TOP10; [5]): 92%

GRLRRFRKKIGKKLKKIGQMIKHIRILVP (Synthetic antimicrobial peptide) [SEQ ID NO: 30]
Growth inhibition using 0.1% arabinose (%) (E. coli TOP10; [5]): 95%

GRFRRFRKKIGGKLKKIGQVIKDIRILVP (Synthetic antimicrobial peptide) [SEQ ID NO: 28]
Growth inhibition using 0.1% arabinose (%) (E. coli TOP10; [5]): 95%

GLFRRFRRKIGKKLKKFGQKIKPLRKLVP (Synthetic antimicrobial peptide) [SEQ ID NO: 20]
Growth inhibition using 0.1% arabinose (%) (E. coli TOP10; [5]): 97%

GRLRRLWRKIGRKLKKYGQVIKHLRILVP (Synthetic antimicrobial peptide) [SEQ ID NO: 17]
Growth inhibition using 0.01% arabinose (%) (E. coli TOP10; [8]): 94%
Growth inhibition using 0.1% arabinose (%) (E. coli TOP10; [9]): 100%

GLLKRLRKKIGKKLKKIGQMIKHIRILVP (Synthetic antimicrobial peptide) [SEQ ID NO: 44]
Growth inhibition using 0.1% arabinose (%) (E. coli TOP10; [5]): 93%

GRFRRLGRKIGEKLKKFGQVIKAIRILVP (Synthetic antimicrobial peptide) [SEQ ID NO: 42]
Growth inhibition using 0.1% arabinose (%) (E. coli TOP10; [5]): 95%
